ChEMBL document CHEMBL1133808, “The discovery of sulfonylated dipeptides as potent VLA-4 antagonists” (Bioorg Med Chem Lett, 2001)
Starred links: 1 amine or outer side, 2 acyl side, 3 side chain; linkers in the order of their positions; H or OH if unused. Non-standard residues stand in square brackets, D forms with d. Residues, ends and D or L forms follow the SMILES beside them. *: point of attachment. X1 = O=C(Cc1ccc(N[*:1])cc1)[*:2]; NH(2-Me-phenyl) = Cc1ccccc1N*; CO = O=C([*:1])[*:2]

Columns and labels:
Integrin alpha-4/beta-7 [1] = biological target: T1, Integrin alpha-4/beta-7 (Homo sapiens, UniProt P13612+P26010); experiment: Inhibition of [125I]MAdCAM-Ig binding to alpha4-beta7 integrin of human RPMI-8866 cells; format: cell-based
T1 sequence (P13612 whole entry): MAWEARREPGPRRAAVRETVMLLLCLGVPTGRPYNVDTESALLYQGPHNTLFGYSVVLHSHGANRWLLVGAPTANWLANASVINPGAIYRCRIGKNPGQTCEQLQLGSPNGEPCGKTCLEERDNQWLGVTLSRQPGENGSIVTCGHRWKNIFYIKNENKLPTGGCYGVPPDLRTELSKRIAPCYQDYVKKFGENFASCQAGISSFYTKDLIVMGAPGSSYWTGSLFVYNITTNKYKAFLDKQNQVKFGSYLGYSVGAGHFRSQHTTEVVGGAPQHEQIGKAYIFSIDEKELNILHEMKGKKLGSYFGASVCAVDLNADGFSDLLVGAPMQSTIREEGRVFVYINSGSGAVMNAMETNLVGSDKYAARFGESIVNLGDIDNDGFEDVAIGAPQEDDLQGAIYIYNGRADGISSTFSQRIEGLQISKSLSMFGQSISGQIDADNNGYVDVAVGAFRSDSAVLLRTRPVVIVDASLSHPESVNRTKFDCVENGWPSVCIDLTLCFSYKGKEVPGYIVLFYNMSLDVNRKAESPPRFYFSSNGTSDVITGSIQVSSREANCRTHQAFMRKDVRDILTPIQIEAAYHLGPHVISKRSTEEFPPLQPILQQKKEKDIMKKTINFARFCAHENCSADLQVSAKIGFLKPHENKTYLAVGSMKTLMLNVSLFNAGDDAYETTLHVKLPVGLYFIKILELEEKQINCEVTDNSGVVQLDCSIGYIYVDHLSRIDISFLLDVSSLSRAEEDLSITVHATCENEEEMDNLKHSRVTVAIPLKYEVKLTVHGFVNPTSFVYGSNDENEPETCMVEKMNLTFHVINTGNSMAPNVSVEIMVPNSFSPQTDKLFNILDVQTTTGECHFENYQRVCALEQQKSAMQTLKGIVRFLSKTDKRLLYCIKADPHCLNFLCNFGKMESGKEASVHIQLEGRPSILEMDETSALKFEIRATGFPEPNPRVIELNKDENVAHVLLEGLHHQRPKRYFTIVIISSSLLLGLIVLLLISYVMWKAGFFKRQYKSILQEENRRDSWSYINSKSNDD
T1 sequence (P26010 whole entry): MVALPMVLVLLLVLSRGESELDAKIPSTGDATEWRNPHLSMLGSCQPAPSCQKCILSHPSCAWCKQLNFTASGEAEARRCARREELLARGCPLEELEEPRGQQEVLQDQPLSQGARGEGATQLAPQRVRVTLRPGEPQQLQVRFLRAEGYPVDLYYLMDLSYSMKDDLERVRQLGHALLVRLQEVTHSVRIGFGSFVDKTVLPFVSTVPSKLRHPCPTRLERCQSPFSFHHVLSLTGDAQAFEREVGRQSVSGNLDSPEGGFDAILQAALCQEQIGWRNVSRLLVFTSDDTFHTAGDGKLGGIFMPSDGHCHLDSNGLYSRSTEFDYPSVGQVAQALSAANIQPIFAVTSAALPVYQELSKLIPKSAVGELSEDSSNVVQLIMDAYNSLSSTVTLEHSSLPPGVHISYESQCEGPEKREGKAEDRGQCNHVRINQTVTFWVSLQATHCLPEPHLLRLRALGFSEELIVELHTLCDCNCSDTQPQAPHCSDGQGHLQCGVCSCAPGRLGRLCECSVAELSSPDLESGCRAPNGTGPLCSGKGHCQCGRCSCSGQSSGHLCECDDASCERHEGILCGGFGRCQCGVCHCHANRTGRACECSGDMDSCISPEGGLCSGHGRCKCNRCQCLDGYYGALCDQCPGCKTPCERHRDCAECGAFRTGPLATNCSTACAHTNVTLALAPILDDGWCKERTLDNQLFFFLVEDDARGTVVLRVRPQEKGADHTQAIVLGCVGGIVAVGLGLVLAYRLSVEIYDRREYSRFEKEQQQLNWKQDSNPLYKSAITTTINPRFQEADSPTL

Integrin alpha-4/beta-1 [2] = biological target: T2, Integrin alpha-4/beta-1 (Homo sapiens, UniProt P05556+P13612); experiment: Antagonistic activity against VLA-4 integrin of human jurkat cells using [125I]VCAM-Ig as radioligand; format: functional, cell-based
[3] = Plasma clearance in Sprague-Dawley rats; format: ADME, organism-based; conditions: rat, read-out: Clp
[4] = Oral bioavailability in rat (Sprague-Dawley) (dose 1 mg/kg i.v.); format: ADME, organism-based; conditions: in vivo
[5] = Oral bioavailability in rat (Sprague-Dawley) (dose 2 mg/kg); format: ADME, organism-based; conditions: in vivo
[6] = Plasma half-life in Sprague-Dawley rats; format: ADME, organism-based; conditions: rat
Integrin alpha-4/beta-1 [7] = biological target: T2, Integrin alpha-4/beta-1; experiment: Inhibition of [125I]-VCAM-Ig binding to VLA-4 integrin of human Jurkat cells; format: cell-based
Integrin alpha-4/beta-7 [8] = biological target: T1, Integrin alpha-4/beta-7; experiment: Inhibition of [125I]VCAM-Ig binding to alpha4-beta7 integrin of human RPMI-8866 cells; format: cell-based
[9] = Compound was tested for protein binding in human plasma; format: ADME, cell-free; conditions: read-out: Protein binding (converted)
[10] = Oral bioavailability in Sprague-Dawley rats; format: ADME, organism-based; conditions: rat, in vivo
Integrin alpha-4/beta-1 [11] = biological target: T2, Integrin alpha-4/beta-1; experiment: Inhibition of [125I]VCAM-Ig binding to VLA-4 integrin of human Jurkat cells; format: cell-based
[12] = Plasma half-life in Beagle dogs; format: ADME, organism-based, Canis lupus familiaris; conditions: dog
[13] = Plasma half-life in rhesus monkey; conditions: cercopithecidae
[14] = Plasma clearance in rhesus monkey; format: ADME, organism-based; conditions: cercopithecidae, read-out: Clp
[15] = Plasma clearance in Beagle dogs; format: ADME, organism-based, Canis lupus familiaris; conditions: dog, read-out: Clp
[16] = Compound was tested for protein binding in rat plasma; format: ADME, organism-based; conditions: read-out: Protein binding (converted)

T2 sequence (P05556 whole entry, one chain of several): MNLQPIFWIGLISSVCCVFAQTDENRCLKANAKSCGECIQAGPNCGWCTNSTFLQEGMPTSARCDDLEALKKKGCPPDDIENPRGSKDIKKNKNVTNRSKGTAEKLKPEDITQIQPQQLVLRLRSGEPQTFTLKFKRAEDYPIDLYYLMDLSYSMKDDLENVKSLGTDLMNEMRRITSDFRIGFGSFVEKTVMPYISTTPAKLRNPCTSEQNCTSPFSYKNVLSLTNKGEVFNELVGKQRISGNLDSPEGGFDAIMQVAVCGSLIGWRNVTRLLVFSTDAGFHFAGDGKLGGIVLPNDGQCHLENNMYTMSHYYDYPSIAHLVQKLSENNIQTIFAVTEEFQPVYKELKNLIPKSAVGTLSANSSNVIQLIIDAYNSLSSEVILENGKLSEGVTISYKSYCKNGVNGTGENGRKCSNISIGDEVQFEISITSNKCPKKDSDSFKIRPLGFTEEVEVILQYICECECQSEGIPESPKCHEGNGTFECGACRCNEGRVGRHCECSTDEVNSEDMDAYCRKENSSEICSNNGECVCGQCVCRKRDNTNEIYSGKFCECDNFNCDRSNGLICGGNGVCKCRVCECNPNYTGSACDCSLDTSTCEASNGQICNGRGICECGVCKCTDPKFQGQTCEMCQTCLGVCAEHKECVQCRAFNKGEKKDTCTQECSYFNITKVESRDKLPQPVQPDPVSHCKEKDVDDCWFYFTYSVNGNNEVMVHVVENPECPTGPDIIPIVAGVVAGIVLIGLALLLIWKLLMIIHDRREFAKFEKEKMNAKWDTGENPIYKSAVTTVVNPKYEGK

Row | IC50 (Integrin alpha-4/beta-7 [1]) | IC50 (Integrin alpha-4/beta-1 [2]) | clearance [3] | IC50 (Integrin alpha-4/beta-7 [8]) | Structure (SMILES) | also measured
1 | 3550 nM | 4.5 nM | – | – | CC(C)C(=O)Oc1cccc(OC(=O)C(C)C)c1-c1ccc(C[C@H](NC(=O)[C@]2(C)CCCN2S(=O)(=O)c2cc(Cl)cc(Cl)c2)C(=O)O)cc1 | –
2 | – | 0.64 nM | 39 mL/min/kg | – | COc1ccccc1-c1ccc(C[C@H](NC(=O)[C@@H]2CCCN2S(=O)(=O)c2cc(Cl)cc(Cl)c2)C(=O)O)cc1 | bioavailability [4]: 3%; bioavailability [5]: 3%
3 | – | 0.46 nM | 21 mL/min/kg | – | N#Cc1ccccc1-c1ccc(C[C@H](NC(=O)[C@@H]2CCCN2S(=O)(=O)c2cc(Cl)cc(Cl)c2)C(=O)O)cc1 | bioavailability [4]: 4%; bioavailability [5]: 4%
4 | 14.2 nM | 0.07 nM | > 100 mL/min/kg | – | COc1cccc(OC)c1-c1ccc(C[C@H](NC(=O)[C@]2(C)CCN2S(=O)(=O)c2cc(Cl)cc(Cl)c2)C(=O)O)cc1 | half-life [6]: 1.5 h
5 | 77 nM | 0.28 nM | – | – | COc1cccc(C#N)c1-c1ccc(C[C@H](NC(=O)[C@]2(C)CCCN2S(=O)(=O)c2cc(Cl)cc(Cl)c2)C(=O)O)cc1 | –
6 | – | – | – | – | COc1ccc(S(=O)(=O)N2Cc3ccccc3C[C@H]2C(=O)N[C@@H](CCC(=O)O)C(=O)O)cc1OC | IC50 (Integrin alpha-4/beta-1 [7]): 257 nM
7 | – | 0.24 nM | – | 413 nM | C[C@@]1(C(=O)N[C@@H](Cc2ccc(-c3nccs3)cc2)C(=O)O)CCCN1S(=O)(=O)c1cc(Cl)cc(Cl)c1 | –
8 | – | 0.5 nM | 49 mL/min/kg | – | O=C(O)[C@H](Cc1ccc2ccccc2c1)NC(=O)[C@@H]1CCCN1S(=O)(=O)c1cc(Cl)cc(Cl)c1 | fraction unbound [9]: 0.004; bioavailability [10]: 15%; half-life [6]: 0.6 h
9 | – | 0.52 nM | 20 mL/min/kg | 242 nM | COc1ccccc1-c1ccc(C[C@H](NC(=O)[C@]2(C)CCCN2S(=O)(=O)c2cc(Cl)cc(Cl)c2)C(=O)O)cc1 | –
10 | 11.5 nM | 0.08 nM | > 100 mL/min/kg | 2.98 nM | COc1cccc(OC)c1-c1ccc(C[C@H](NC(=O)[C@]2(C)CCCN2S(=O)(=O)c2cc(Cl)cc(Cl)c2)C(=O)O)cc1 | half-life [6]: 2.2 h
11 | 10.6 nM | – | > 100 mL/min/kg | – | COc1cccc(OC)c1-c1ccc(C[C@H](NC(=O)[C@@H]2CCN2S(=O)(=O)c2cc(Cl)cc(Cl)c2)C(=O)O)cc1 | –
12 | – | 0.16 nM | – | 13.2 nM | C[C@@]1(C(=O)N[C@@H](Cc2ccc(-c3ccccc3S(C)(=O)=O)cc2)C(=O)O)CCCN1S(=O)(=O)c1cc(Cl)cc(Cl)c1 | –
13 | – | – | – | – | CCCC[C@H](NC(=O)[C@@H]1Cc2ccccc2CN1S(=O)(=O)c1ccc(OC)c(OC)c1)C(=O)O | IC50 (Integrin alpha-4/beta-1 [11]): 58 nM
14 | 97.1 nM | 0.15 nM | 17 mL/min/kg | – | C[C@@]1(C(=O)N[C@@H](Cc2ccc(-c3ccccn3)cc2)C(=O)O)CCCN1S(=O)(=O)c1cc(Cl)cc(Cl)c1 | half-life [6]: 1 h
15 | – | 0.22 nM | – | 82.7 nM | CN(C)C(=O)c1ccccc1-c1ccc(C[C@H](NC(=O)[C@]2(C)CCCN2S(=O)(=O)c2cc(Cl)cc(Cl)c2)C(=O)O)cc1 | –
16 | – | 0.14 nM | – | 24.3 nM | C[C@@]1(C(=O)N[C@@H](Cc2ccc(-c3ccccc3C(N)=O)cc2)C(=O)O)CCCN1S(=O)(=O)c1cc(Cl)cc(Cl)c1 | half-life [6]: 1.1 h
17 | – | 192 nM | – | 2260 nM | C[C@@]1(C(=O)N[C@@H](Cc2ccc(-c3ccccc3Cl)cc2)C(=O)O)CCCN1S(=O)(=O)c1cc(Cl)cc(Cl)c1 | –
18 | – | 1.33 nM | – | 5720 nM | C[C@@]1(C(=O)N[C@@H](Cc2ccc(-c3cccc4cc[nH]c34)cc2)C(=O)O)CCCN1S(=O)(=O)c1cc(Cl)cc(Cl)c1 | –
19 | 670 nM | 0.5 nM | – | – | C[C@@]1(C(=O)N[C@@H](Cc2ccc(-c3c(O)cccc3O)cc2)C(=O)O)CCCN1S(=O)(=O)c1cc(Cl)cc(Cl)c1 | –
20 | – | 0.65 nM | – | 78.2 nM | CSc1ccccc1-c1ccc(C[C@H](NC(=O)[C@]2(C)CCCN2S(=O)(=O)c2cc(Cl)cc(Cl)c2)C(=O)O)cc1 | –
21 | – | 1.01 nM | – | 1240 nM | C[C@@]1(C(=O)N[C@@H](Cc2ccc(-c3cc(C#N)ccc3F)cc2)C(=O)O)CCCN1S(=O)(=O)c1cc(Cl)cc(Cl)c1 | –
22 | 52.5 nM | 0.11 nM | 71 mL/min/kg | – | COc1cccnc1-c1ccc(C[C@H](NC(=O)[C@]2(C)CCCN2S(=O)(=O)c2cc(Cl)cc(Cl)c2)C(=O)O)cc1 | half-life [6]: 0.5 h
23 | – | 1.12 nM | – | 1140 nM | C[C@@]1(C(=O)N[C@@H](Cc2ccc(-c3cccc(C#N)c3)cc2)C(=O)O)CCCN1S(=O)(=O)c1cc(Cl)cc(Cl)c1 | –
24 | 949 nM | 0.52 nM | – | – | C[C@@]1(C(=O)N[C@@H](Cc2ccc(-c3nc[nH]n3)cc2)C(=O)O)CCCN1S(=O)(=O)c1cc(Cl)cc(Cl)c1 | –
25 | – | 2.4 nM | – | > 4000 nM | C[C@@]1(C(=O)N[C@@H](Cc2ccc(-c3ccccc3F)cc2)C(=O)O)CCCN1S(=O)(=O)c1cc(Cl)cc(Cl)c1 | –
26 | – | 0.92 nM | – | 345 nM | C[C@@]1(C(=O)N[C@@H](Cc2ccc(-c3ccccc3C#N)cc2)C(=O)O)CCCN1S(=O)(=O)c1cc(Cl)cc(Cl)c1 | half-life [12]: 3.4 h; fraction unbound [9]: 0.005; half-life [13]: 5.3 h; clearance [14]: 12 mL/min/kg; clearance [15]: 25 mL/min/kg; half-life [6]: 1.5 h; fraction unbound [16]: 0.005
27 | – | 0.35 nM | – | 311 nM | C[C@@]1(C(=O)N[C@@H](Cc2ccc(-c3cccnc3)cc2)C(=O)O)CCCN1S(=O)(=O)c1cc(Cl)cc(Cl)c1 | –
28 | 862 nM | – | – | 433 nM | Cc1ccccc1NC(=O)Nc1ccc(CC(=O)N[C@@H](CC(C)C)C(=O)N[C@@H](CC(=O)O)C(=O)N[C@H](C(=O)N2CCC[C@H]2C(=O)O)C(C)C)cc1 ({NH(2-Me-phenyl)-CO}-[X1]LDVP-OH) | –
